Biological target: T1, ACC (acetyl CoA carboxylase) purified from liver of male SD rat (Rattus norvegicus, UniProt P11497)
T1 construct: applied to a monomeric avidin sepharose column, and washed with buffer B. The ACC was eluted with buffer B containing 2 mM d-biotin; from tissue; host or cells: liver of male SD rat
Assay: Measurement of ACC inhibition activity ([14C]-NaHCO3 incorporation)
Type: biochemical
Conditions: ACC inhibition activity rate at 1 μM; Table 2-III, Mode 3 acetylene/oxadiazole/thiazole compounds (numbers = x-III); read-out: ACC Inhibition (%)
Experimental: A male SD rat was deprived of food for two days and then fed a high-sucrose diet (component) for two days. While anesthetized with ether, the descending vena cava was cut upon, the animal was bled, and the liver was rapidly recovered. In an ice-cooled buffer solution A (225 mM mannitol, 75 mM sucrose, 10 mM Tris-HCl (pH 7.5), 0.05 mM EDTA, 5 mM potassium citrate, 2.5 mM MgCl2, 10 mg/L pepstatin A, 10 mg/L leupeptin, 1 mM PMSF), the liver was homogenized with a polytone homogenizer. A quantity of buffer A nine times the weight of the liver was added, the mixture was centrifuged for 10 minutes at 1,000 g, the supernatant was recovered, and the supernatant was centrifuged for another 10 minutes at 17,000 g.
Ammonium sulfate was added to 35 percent saturation to the obtained supernatant. The mixture was stirred for 45 minutes and then centrifuged for 10 minutes at 17,000 g. Buffer solution B (100 mM Tris-HCl (pH 7.5), 500 mM NaCl, 1 mM EDTA, 0.1 mM DTT, 10 percent glycerol, 10 mg/L pepstatin A, 10 mg/L leupeptin, 0.5 mM PMSF) was added to the obtained precipitate and dissolved. The solution was then centrifuged for 20 minutes at 40,000 g. The supernatant was dialyzed overnight against buffer C (100 mM Tris-HCl (pH 7.5), 500 mM NaCl, 1 mM EDTA, 0.1 mM DTT, 5 percent glycerol).
The dialyzed supernatant was passed through a […], applied to a monomeric avidin sepharose column, and washed with buffer B. The ACC was eluted with buffer B containing 2 mM d-biotin.
(2 Measurement of ACC Inhibition Activity)
The compounds synthesized in the above-described embodiments were dissolved in DMSO and charged to glass vials. 250 μL of ACC-containing reaction solution (40 mM Tris-HCl (pH 7.5), 40 mM MgCl2, 40 mM sodium citrate, and 2 mM DTT) was added. The mixture was heated for 30 minutes at 37° C. in a thermostatic chamber and then cooled with ice. To reaction solution 1 was added 250 μL of reaction solution 2 containing [14C]—NaHCO3 (40 mM Tris-HCl (pH 7.5), 2 mM DTT, 8 mM ATP, 0.5 mM acetyl CoA) and the mixture was heated for 10 minutes at 37° C. 100 μL of 1N HCl was added to stop the reaction. Water in the reaction solution was removed with a centrifugal evaporator, a scintillator was added, the solid component was dissolved, and the 14C radioactivity was measured with a liquid scintillation counter. The ACC inhibition activity of each compound was calculated from the following equation and converted to the ACC inhibition activity rate (%) at 1 μM.
ACC inhibition rate (%)=(1−(a−c)/(b−c))×100 a. Radioactivity when test drug added b: Radioactivity when test drug not added c: Blank* *Reaction solution 1 to which 100 μL of 1N HCl was added before mixing reaction solution 1 and reaction solution 2

| SMILES | inhibition at 1 µM [%] |
| --- | --- |
| O=C(O)CNC(=O)Nc1ccc(C#Cc2cccc(C(F)(F)F)c2)cc1 [compound 65] | 64 |
| O=C(Nc1ccc(C#Cc2cccc(C(F)(F)F)c2)cc1)NC(Cc1ccccc1)C(=O)O (stereo not shown) [compound 66] | 73 |
| O=C1c2cccc3cccc(c23)C(=O)N1c1cccc(C#Cc2cccc(C(F)(F)F)c2)c1 [compound 70] | 62 |
| O=C1C(c2ccccc2)=C(c2ccccc2)C(=O)N1c1cccc(C#Cc2cccc(C(F)(F)F)c2)c1 [compound 74] | 66 |
| O=[N+]([O-])c1ccccc1S(=O)(=O)Nc1ccc(-c2csc(-c3ccccc3)n2)cc1 [compound 77] | 64 |
| O=S(=O)(Nc1ccc(-c2csc(-c3ccccc3)n2)cc1)c1ccccc1NO [compound 78] | 55 |
| O=[N+]([O-])c1ccccc1S(=O)(=O)Nc1cccc(-c2csc(-c3ccccc3)n2)c1 [compound 82] | 63 |
| Nc1cccc(S(=O)(=O)Nc2ccc(-c3csc(-c4ccccc4)n3)cc2)c1 [compound 91] | 65 |
| O=C(O)c1ccccc1C(=O)Nc1ccc(-c2csc(-c3cc(C(F)(F)F)ccc3F)n2)cc1 [compound 99] | 52 |
| O=C(Nc1ccc(-c2csc(-c3ccccc3)n2)cc1)N[C@H](Cc1ccccc1)C(=O)O [compound 103] | 63 |
| O=C(O)CCC(NC(=O)OCc1ccccc1)C(=O)Nc1ccc(-c2csc(-c3ccccc3)n2)cc1 (stereo not shown) [compound 104] | 66 |
| CC(C)c1ccc(S(=O)(=O)NC(=O)c2ccc(-c3csc(-c4ccc(C#Cc5cccc(C(F)(F)F)c5)cc4)n3)cc2)cc1 [compound 105] | 99 |
| CC(C)c1ccc(S(=O)(=O)NC(=O)c2cccc(-c3nc(-c4ccc(-c5csc(-c6ccc(C(F)(F)F)cc6)n5)cc4)no3)c2)cc1 [compound 106] | 97 |
| CC(C)c1ccc(S(=O)(=O)NC(=O)c2ccc(-c3nc(-c4ccc(-c5csc(-c6ccc(C(F)(F)F)cc6)n5)cc4)no3)cc2)cc1 [compound 107] | 100 |

Same assay, conditions: ACC inhibition activity rate at 1 μM; Table 3-I, Mode 1 quinoline compounds (numbers = x-I); read-out: ACC Inhibition (%)

| SMILES | inhibition at 1 µM [%] |
| --- | --- |
| O=C(O)c1ccc(-c2ccc3nc(-c4cc(C(F)(F)F)cc(C(F)(F)F)c4)ccc3c2)o1 [compound 82] | 34 |
| CC(C)(C)c1ccc(C(=O)NS(=O)(=O)c2ccccc2NC(=O)c2ccc3nc(-c4cc(C(F)(F)F)cc(C(F)(F)F)c4)ccc3c2)cc1 [compound 83] | 98 |
| CCCCS(=O)(=O)NC(=O)CC(NC(=O)c1ccc2nc(-c3cc(C(F)(F)F)cc(C(F)(F)F)c3)ccc2c1)c1cccc2ccccc12 (stereo not shown) [compound 94] | 50 |
| CCCCS(=O)(=O)NC(=O)CC(NC(=O)c1ccc2nc(-c3cc(C(F)(F)F)cc(C(F)(F)F)c3)ccc2c1)c1cccc(N)c1 (stereo not shown) [compound 102] | 45 |
| CCCCCC(=O)NS(=O)(=O)c1ccccc1NC(=O)c1ccc2nc(-c3cc(C(F)(F)F)cc(C(F)(F)F)c3)c(CCCl)cc2c1 [compound 103] | 50 |
| CCCCCC(=O)NS(=O)(=O)c1ccccc1NC(=O)c1ccc2nc(-c3cc(C(F)(F)F)ccc3F)ccc2c1 [compound 107] | 90 |
| CCCCCC(=O)NS(=O)(=O)c1ccccc1NC(=O)c1ccc2nc(-c3cccc(SC(F)(F)F)c3)ccc2c1 [compound 109] | 61 |
| CCCCCC(=O)NS(=O)(=O)c1ccccc1NC(=O)c1ccc2nc(-c3cccc(C(F)(F)F)c3F)ccc2c1 [compound 110] | 50 |
| CC(C)c1ccc(S(=O)(=O)NC(=O)c2ccccc2-c2csc(-c3ccc4nc(-c5cc(C(F)(F)F)cc(C(F)(F)F)c5)ccc4c3)n2)cc1 [compound 115] | 97 |

Same assay, conditions: ACC inhibition activity rate at 1 μM; Table 4-IV, Mode 4 benzenediamine compounds (numbers = x-IV); read-out: ACC Inhibition (%)

| SMILES | inhibition at 1 µM [%] |
| --- | --- |
| CC(C)CCN(C)c1ccc(-c2noc(-c3cccc(C(=O)NS(=O)(=O)c4ccccc4)c3)n2)cc1NC1C=CCCC1 (stereo not shown) [compound 59] | 100 |
| CC(C)CCN(C)c1ccc(-c2noc(-c3cccc(C(=O)NS(=O)(=O)c4ccccc4)c3)n2)cc1NCc1nccn1C [compound 60] | 61 |
| CN(C)CCNc1ccc(C(=O)Nc2cccc(C(=O)NS(=O)(=O)c3ccccc3)c2)cc1[N+](=O)[O-] [compound 62] | 53 |
| O=C(Nc1cccc(C(=O)NS(=O)(=O)c2ccccc2)c1)c1ccc(NCCN2CCCC2)c([N+](=O)[O-])c1 [compound 67] | 58 |
| Cc1ccccc1S(=O)(=O)NC(=O)CC(NC(=O)c1ccc(N(C)CCC(C)C)c(NCc2ccccc2)c1)C1CCCCC1 (stereo not shown) [compound 82] | 56 |
| Cc1ccccc1S(=O)(=O)NC(=O)CC(NC(=O)c1ccc(N(C)CCC(C)C)c(NCC2CCCCC2)c1)C1CCCCC1 (stereo not shown) [compound 83] | 92 |
| CC(C)CCN(C)c1ccc(C(=O)NC(CC(=O)NS(=O)(=O)c2ccccc2)C2CCCCC2)cc1NC(C)C (stereo not shown) [compound 84] | 52 |
| CC(C)CCN(C)c1ccc(C(=O)NC(CC(=O)NS(=O)(=O)c2ccccc2)C2CCCCC2)cc1NC1CCC1 (stereo not shown) [compound 85] | 59 |
| CC(C)CCN(C)c1ccc(C(=O)NC(CC(=O)NS(=O)(=O)c2ccccc2)C2CCCCC2)cc1NCc1ccco1 (stereo not shown) [compound 90] | 62 |
| CC(C)CCN(C)c1ccc(C(=O)NC(CC(=O)NS(=O)(=O)c2ccccc2)C2CCCCC2)cc1NCc1cccs1 (stereo not shown) [compound 91] | 70 |
| CC(C)CCN(C)c1ccc(C(=O)NC(CC(=O)NS(=O)(=O)c2ccccc2)C2CCCCC2)cc1NCc1nccs1 (stereo not shown) [compound 92] | 49 |
| CC(C)CCN(C)c1ccc(C(=O)NC(CC(=O)NS(=O)(=O)c2ccccc2)C2CCCCC2)cc1N(C)Cc1ccccc1 (stereo not shown) [compound 93] | 84 |
| CC(C)CCN(C)c1ccc(C(=O)NC(CC(=O)NS(=O)(=O)c2ccccc2)C2CCCCC2)cc1N(C)CC1CCCCC1 (stereo not shown) [compound 94] | 96 |
| CC(C)CCN(C)c1ccc(-c2noc(-c3cccc(C(=O)NS(=O)(=O)c4ccccc4)c3)n2)cc1NCc1ccc(O)cc1 [compound 95] | 100 |
| CC(C)CCN(C)c1ccc(-c2noc(-c3cccc(C(=O)NS(=O)(=O)c4ccccc4)c3)n2)cc1NCc1cccc(O)c1 [compound 96] | 95 |
| CC(C)CCN(C)c1ccc(-c2noc(-c3cccc(C(=O)NS(=O)(=O)c4ccccc4)c3)n2)cc1NCc1ccccc1O [compound 97] | 98 |
| COc1cccc(CNc2cc(-c3noc(-c4cccc(C(=O)NS(=O)(=O)c5ccccc5)c4)n3)ccc2N(C)CCC(C)C)c1 [compound 98] | 100 |
| CC(C)CCN(C)c1ccc(-c2noc(-c3cccc(C(=O)NS(=O)(=O)c4ccccc4)c3)n2)cc1NCc1cccc(C(=O)O)c1 [compound 100] | 72 |
| CC(C)CCN(C)c1ccc(-c2noc(-c3cccc(C(=O)NS(=O)(=O)c4ccccc4)c3)n2)cc1NCc1cccc(F)c1 [compound 101] | 100 |
| CC(C)CCN(C)c1ccc(-c2noc(-c3cccc(C(=O)NS(=O)(=O)c4ccccc4)c3)n2)cc1NCc1ccc2ccccc2c1 [compound 102] | 100 |
| Cc1ccccc1S(=O)(=O)NC(=O)c1cccc(-c2nc(-c3ccc(N(C)CCC(C)C)c(NCc4ccccc4)c3)no2)c1 [compound 103] | 100 |
| CC(C)CCN(C)c1ccc(-c2noc(-c3cccc(C(=O)NS(=O)(=O)c4ccccc4)c3)n2)cc1NC(C)c1ccccc1 (stereo not shown) [compound 106] | 100 |
| Cc1ccccc1S(=O)(=O)NC(=O)c1cccc(-c2nc(-c3ccc(N(C)CCC(C)C)c(NC(C)c4ccccc4)c3)no2)c1 (stereo not shown) [compound 107] | 100 |
| CC(C)CCN(C)c1ccc(C(=O)NC(CC(=O)NS(=O)(=O)c2ccccc2)c2ccccc2)cc1NCc1ccccc1 (stereo not shown) [compound 112] | 75 |
| CC(C)CCN(C)c1ccc(-c2noc(-c3cccc(C(=O)NS(=O)(=O)c4ccccc4)c3)n2)cc1NCc1ccc(OCCO)cc1 [compound 113] | 97 |
| CC(C)CCN(C)c1ccc(-c2noc(-c3cccc(C(=O)NS(=O)(=O)c4ccccc4)c3)n2)cc1NCc1cc(O)cc(O)c1 [compound 114] | 77 |

— patent publication US7402696B2, “Benzene compounds” (Ajinomoto Co., Inc., priority 2004, dated 2008)
